Drawing on patent US8937077B2, “Bicyclic diamines as janus kinase inhibitors” (Merck Sharp & Dohme Corp., priority 2010, dated 2015), this text covers IC50 for 30 compounds.

T1 sequence (P23458 875-1153 limits assumed): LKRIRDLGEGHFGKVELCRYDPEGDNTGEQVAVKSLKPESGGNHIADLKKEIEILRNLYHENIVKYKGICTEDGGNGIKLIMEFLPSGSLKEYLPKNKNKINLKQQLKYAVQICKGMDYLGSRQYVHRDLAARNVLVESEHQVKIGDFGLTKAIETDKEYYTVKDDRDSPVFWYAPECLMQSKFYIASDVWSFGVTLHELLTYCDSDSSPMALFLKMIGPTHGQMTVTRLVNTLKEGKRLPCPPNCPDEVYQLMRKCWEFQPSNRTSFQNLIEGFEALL

One experiment concerns the target T1, Jak1 (Homo sapiens, UniProt P23458).
T1 construct: using a recombinant purified GST-tagged catalytic domain for each enzyme; GST; purchased Invitrogen M4290
As to the kind of experiment: Jak Biochemical HTRF Assay (Jak1). As to conditions: IC50 class, recombinant GST-tagged catalytic domain, read-out: Jak1 activity. The gist of the method: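 Recombinant GST-tagged Jak1 catalytic domain was preincubated with compound and peptide substrate for 30 min at room temperature, and the reaction was then started with ATP and run 120 min. Buffer contained 2 mM DTT and 0.05% BSA. Read-out was HTRF (665/615 nm) with Eu-pY20 antibody and streptavidin-Dylight, and IC50 values came from 4-parameter fits of percent inhibition.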
For the compound `O=C(CO)N1CCCC2C1CCN2c1ncnc2[nH]ccc12` [Example 17, (3aS,7aS and 3aR,7aR) 2-hydroxy-1-[1-(7H-pyrrolo[2,3-d]pyrimidin-4-yl)octahydro-4H-pyrrolo[3,2-b]pyridine-4-yl]ethanone], the IC50 was 100 to 1000 nM.

On to `CO[C@](C(=O)N1CCC[C@@H]2[C@H]1CCN2c1ncnc2[nH]ccc12)(c1ccccc1)C(F)(F)F` [Example 18, (2S)-3,3,3-trifluoro-2-methoxy-2-phenyl-1-[(3aR,7aR)-1-(7H-pyrrolo[2,3-d]pyrimidin-4-yl)octahydro-4H-pyrrolo[3,2-b]pyridine-4-yl]propan-1 one], for which the IC50 was 100 to 1000 nM.

Consider `CO[C@@](C(=O)N1CCC[C@@H]2[C@H]1CCN2c1ncnc2[nH]ccc12)(c1ccccc1)C(F)(F)F` [Example 19, (2R)-3,3,3-trifluoro-2-methoxy-2-phenyl-1-[(3aR,7aR)-1-(7H-pyrrolo[2,3-d]pyrimidin-4-yl)octahydro-4H-pyrrolo[3,2-b]pyridine-4-yl]propan-1-one], for which the IC50 fell in the range of 10 to 100 nM.

As for `CC1CCN(Cc2ccccc2)C2CCN(c3ncnc4[nH]ccc34)C12` [Example 21, (3aS,7S,7aS and 3aR,7R,7aR) 4-(4-benzyl-7-methyloctahydro-1H-pyrrolo[3,2-b]pyridin-1-yl)-7H-pyrrolo[2,3-d]pyrimidine], the IC50 was 10 to 100 nM.

For the compound `CC1CCN(C(=O)CC#N)C2CCN(c3ncnc4[nH]ccc34)C12` [Example 22, (3aS,7S,7aS and 3aR,7R,7aR) 3-[7-methyl-1-(7H-pyrrolo[2,3-d]pyrimidin-4-yl)octahydro-4H-pyrrolo[3,2-b]pyridin-4-yl]-3-oxopropanenitrile], the IC50 is 100 to 1000 nM.

Consider `COC(=O)c1ccc(CNC(=O)N2CCC[C@@H]3[C@H]2CCN3c2ncnc3[nH]ccc23)cc1` [Example 23, methyl 4-[({[(3aR,7aR)-1-(7H-pyrrolo[2,3-d]pyrimidin-4-yl)octahydro-4H-pyrrolo[3,2-b]-pyridine-4-yl]carbonyl}amino)methyl]benzoate], for which the IC50 was in the range of 10 to 100 nM.

Regarding `COC(=O)c1ccc(CN(C)C(=O)N2CCC[C@@H]3[C@H]2CCN3c2ncnc3[nH]ccc23)cc1` [Example 24, methyl 4-[(methyl{[(3aR,7aR)-1-(7H-pyrrolo[2,3-d]pyrimidin-4-yl)octahydro-4H-pyrrolo[3,2-b]-pyridin-4-yl]carbonyl}amino)methyl]benzoate], the IC50 lay in the range of 1 to 10 nM.

In the case of `O=C(O)c1ccc(CNC(=O)N2CCC[C@@H]3[C@H]2CCN3c2ncnc3[nH]ccc23)cc1` [Example 25, 4-[({[(3aR,7aR)-1-(7H-pyrrolo[2,3-d]pyrimidin-4-yl)octahydro-4H-pyrrolo[3,2-b]pyridin-4-yl]carbonyl}amino)methyl]benzoic acid], the IC50 lay in the range of 100 to 1000 nM.

Regarding `COC(=O)c1ccc(CCC(=O)N2CCC[C@@H]3[C@H]2CCN3c2ncnc3[nH]ccc23)cc1` [Example 26, methyl 4-{3-oxo-3-[(3aR,7aR)-1-(7H-pyrrolo[2,3-d]pyrimidin-4-yl)octahydro-4H-pyrrolo[3,2-b]pyridine-4-yl]propyl}benzoate], the IC50 was 10 to 100 nM.

With `O=C(O)c1ccc(CCC(=O)N2CCC[C@@H]3[C@H]2CCN3c2ncnc3[nH]ccc23)cc1` [Example 27, 4-{3-oxo-3-[(3aR,7aR)-1-(7H-pyrrolo[2,3-d]pyrimidin-4-yl)octahydro-4H-pyrrolo[3,2-b]pyridin-4-yl]propyl}benzoic acid], the IC50 is 10 to 100 nM.

As to `O=C(O)c1ccc(CCOC(=O)N2CCC[C@@H]3[C@H]2CCN3c2ncnc3[nH]ccc23)cc1` [Example 28, 4-[2-({[(3aR,7aR)-1-(7H-pyrrolo[2,3-d]pyrimidin-4-yl)octahydro-4H-pyrrolo[3,2-b]pyridin-4-yl]carbonyl}oxy)ethyl]benzoic acid], the IC50 fell in the range of 100 to 1000 nM.

For `O=C(c1ccc(N2CCOCC2)cc1)N1CCCC2C1CCN2c1ncnc2[nH]ccc12` [Example 29-1, (3aS,7aS and 3aR,7aR) 4-{4-[(4-morpholin-4-ylphenyl)carbonyl]octahydro-1H-pyrrolo[3,2-b]pyridin-1-yl}-7H-pyrrolo[2,3-d]pyrimidine], the IC50 was in the range of 100 to 1000 nM.

On to `COc1ccc(CC(=O)N2CCCC3C2CCN3c2ncnc3[nH]ccc23)cc1` (centres unmarked) [Example 29-4, 4-{4-[(4-methoxyphenyl)acetyl]octahydro-1H-pyrrolo[3,2-b]pyridin-1-yl}-7H-pyrrolo[2,3-d]pyrimidine], for which the IC50 was 10 to 100 nM.

Take `O=C(Cc1ccc(C(F)(F)F)cc1)N1CCCC2C1CCN2c1ncnc2[nH]ccc12` (centres unmarked) [Example 29-5, 4-(4-{[4-(trifluoromethyl)phenyl]acetyl}octahydro-1H-pyrrolo[3,2-b]pyridin-1-yl)-7H-pyrrolo[2,3-d]pyrimidine]: the IC50 fell in the range of 10 to 100 nM.

In the case of `CN1CCN(c2ccc(C(=O)N3CCCC4C3CCN4c3ncnc4[nH]ccc34)cc2)CC1` (centres unmarked) [Example 29-6, 4-(4-{[4-(4-methylpiperazin-1-yl)phenyl]carbonyl}octahydro-1H-pyrrolo[3,2-b]pyridin-1-yl)-7H-pyrrolo[2,3-d]pyrimidine], the IC50 lay within 100 to 1000 nM.

For the compound `O=C(c1ccco1)N1CCC[C@@H]2[C@H]1CCN2c1ncnc2[nH]ccc12` [Example 29-9, 4-[(3 aR,7aR)-4-(furan-2-ylcarbonyl)octahydro-1H-pyrrolo[3,2-b]pyridin-1-yl]-7H-pyrrolo[2,3-d]pyrimidine], the IC50 lay within 10 to 100 nM.

Turning to `O=C(c1cccnc1)N1CCC[C@@H]2[C@H]1CCN2c1ncnc2[nH]ccc12` [Example 29-10, 4-[(3aR,7aR)-4-(pyridin-3-ylcarbonyl)octahydro-1H-pyrrolo[3,2-b]pyridin-1-yl]-7H-pyrrolo[2,3-d]pyrimidine], the IC50 lay in the range of 10 to 100 nM.

For `O=C(c1ccccn1)N1CCC[C@@H]2[C@H]1CCN2c1ncnc2[nH]ccc12` [Example 29-11, 4-[(3aR,7aR)-4-(pyridin-2-ylcarbonyl)octahydro-1H-pyrrolo[3,2-b]pyridin-1-yl]-7H-pyrrolo[2,3-d]pyrimidine], the IC50 lay in the range of 100 to 1000 nM.

Consider `O=C(c1ccncc1)N1CCC[C@@H]2[C@H]1CCN2c1ncnc2[nH]ccc12` [Example 29-12, 4-[(3aR,7aR)-4-(pyridin-4-ylcarbonyl)octahydro-1H-pyrrolo[3,2-b]pyridin-1-yl]-7H-pyrrolo[2,3-d]pyrimidine], for which the IC50 fell in the range of 10 to 100 nM.

For the compound `O=C(c1cnccn1)N1CCC[C@@H]2[C@H]1CCN2c1ncnc2[nH]ccc12` [Example 29-13, 4-[(3aR,7aR)-4-(pyrazin-2-ylcarbonyl)octahydro-1H-pyrrolo[3,2-b]pyridin-1-yl]-7H-pyrrolo[2,3-d]pyrimidine], the IC50 was 10 to 100 nM.

On to `Cc1cc(C(=O)N2CCC[C@@H]3[C@H]2CCN3c2ncnc3[nH]ccc23)no1` [Example 29-14, 4-{(3aR,7aR)-4[(5-methylisoxazol-3-yl)carbonyl]octahydro-1H-pyrrolo[3,2-b]pyridin-1-yl}-7H-pyrrolo[2,3-d]pyrimidine], for which the IC50 was 100 to 1000 nM.

`O=C(C1CCCCC1)N1CCC[C@@H]2[C@H]1CCN2c1ncnc2[nH]ccc12` [Example 29-15, 4-[(3aR,7aR)-4-(cyclohexylcarbonyl)octahydro-1H-pyrrolo[3,2-b]pyridin-1-yl]-7H-pyrrolo[2,3-d]pyrimidine]: the IC50 lay in the range of 10 to 100 nM.

Regarding `O=C1CCCN1CC(=O)N1CCC[C@@H]2[C@H]1CCN2c1ncnc2[nH]ccc12` [Example 29-16, 1-{2-oxo-2-[(3aR,7aR)-1-(7H-pyrrolo[2,3-d]pyrimidin-4-yl)octahydro-4H-pyrrolo[3,2-b]pyridin-4-yl]ethyl}pyrrolidin-2-one], the IC50 lay within 100 to 1000 nM.

Regarding `O=C(c1ccccc1Cl)N1CCC[C@@H]2[C@H]1CCN2c1ncnc2[nH]ccc12` [Example 29-17, 4-{(3aR,7aR)-4-[(2-chlorophenyl)carbonyl]octahydro-1H-pyrrolo[3,2-b]pyridin-1-yl}-7H-pyrrolo[2,3-d]pyrimidine], the IC50 was 10 to 100 nM.

Regarding `O=C(c1cccc(Cl)c1)N1CCC[C@@H]2[C@H]1CCN2c1ncnc2[nH]ccc12` [Example 29-18, 4-{(3aR,7aR)-4-[(3-chlorophenyl)carbonyl]octahydro-1H-pyrrolo[3,2-b]pyridin-1-yl}-7H-pyrrolo[2,3-d]pyrimidine], the IC50 is 10 to 100 nM.

As for `O=C(c1cccc2ccccc12)N1CCC[C@@H]2[C@H]1CCN2c1ncnc2[nH]ccc12` [Example 29-20, 4-[(3aR,7aR)-4-(naphthalen-1-ylcarbonyl)octahydro-1H-pyrrolo[3,2-b]pyridin-1-yl]-7H-pyrrolo[2,3-d]pyrimidine], the IC50 was in the range of 10 to 100 nM.

Regarding `Cn1c(C(=O)N2CCC[C@@H]3[C@H]2CCN3c2ncnc3[nH]ccc23)cc2ccccc21` [Example 29-21, 4-{(3aR,7aR)-4-[(1-methyl-1H-indol-2-yl)carbonyl]octahydro-1H-pyrrolo[3,2-b]pyridin-1-yl}-7H-pyrrolo[2,3-d]pyrimidine], the IC50 fell in the range of 10 to 100 nM.

`O=C(c1cccc(N2CCOCC2)c1)N1CCC[C@@H]2[C@H]1CCN2c1ncnc2[nH]ccc12` [Example 29-22, 4-{(3aR,7aR)-4-[(3-morpholin-4-ylphenyl)carbonyl]octahydro-1H-pyrrolo[3,2-b]pyridin-1-yl}-7H-pyrrolo[2,3-d]pyrimidine]: the IC50 was 100 to 1000 nM.

The experiment is the same for the next values; noted with them: Jak1 activity, IC50 class, recombinant GST-tagged catalytic domain.
Turning to `CC1CCN(C(=O)OCc2ccccc2)C2CCN(c3ncnc4[nH]ccc34)C12` [Example 20, (3aS,7S,7aS and 3aR,7R,7aR) benzyl 7-methyl-1-(7H-pyrrolo[2,3-d]pyrimidin-4-yl)octahydro-4H-pyrrolo[3,2-b]pyridine-4-carboxylate], the IC50 lay within 10 to 100 nM.

For `O=C(c1cc2ccccc2[nH]1)N1CCC[C@@H]2[C@H]1CCN2c1ncnc2[nH]ccc12` [Example 29-19, 4-[(3aR,7aR)-4-(1H-indol-2-ylcarbonyl)octahydro-1H-pyrrolo[3,2-b]pyridin-1-yl]-7H-pyrrolo[2,3-d]pyrimidine], the IC50 lay within 100 to 1000 nM.

Still in this experiment, the particulars now being: Representative IC50 values, recombinant GST-tagged catalytic domain, 31.8 μM ATP.
For the compound `CC1CCN(C(=O)OCc2ccccc2)C2CCN(c3ncnc4[nH]ccc34)C12` [Example 20, (3aS,7S,7aS and 3aR,7R,7aR) benzyl 7-methyl-1-(7H-pyrrolo[2,3-d]pyrimidin-4-yl)octahydro-4H-pyrrolo[3,2-b]pyridine-4-carboxylate], the IC50 worked out at 12 nM.

The experiment is the same for the next values; noted with them: recombinant GST-tagged catalytic domain, 31.8 μM ATP, read-out: Representative IC50 values.
For the compound `COC(=O)c1ccc(CNC(=O)N2CCC[C@@H]3[C@H]2CCN3c2ncnc3[nH]ccc23)cc1` [Example 23, methyl 4-[({[(3aR,7aR)-1-(7H-pyrrolo[2,3-d]pyrimidin-4-yl)octahydro-4H-pyrrolo[3,2-b]-pyridine-4-yl]carbonyl}amino)methyl]benzoate], the IC50 came to 39 nM.
